Each block holds one molecule with its values, some of them ahead of it.
Assays:
human TGR5 receptor = target: T1, human TGR5 receptor (Homo sapiens, UniProt Q8TDU6); test: Human TGR5 cAMP production assay (hTGR5-CHO cells, DiscoveRx cAMP XS+ kit); assay type: cell-based; details: luminescent cAMP assay, read-out: Human TGR5 Lum. cAMP Activity (EC50)
T1 construct: host or cells: CHO-K1 (hTGR5-CHO)
T1 sequence (Q8TDU6 1-330): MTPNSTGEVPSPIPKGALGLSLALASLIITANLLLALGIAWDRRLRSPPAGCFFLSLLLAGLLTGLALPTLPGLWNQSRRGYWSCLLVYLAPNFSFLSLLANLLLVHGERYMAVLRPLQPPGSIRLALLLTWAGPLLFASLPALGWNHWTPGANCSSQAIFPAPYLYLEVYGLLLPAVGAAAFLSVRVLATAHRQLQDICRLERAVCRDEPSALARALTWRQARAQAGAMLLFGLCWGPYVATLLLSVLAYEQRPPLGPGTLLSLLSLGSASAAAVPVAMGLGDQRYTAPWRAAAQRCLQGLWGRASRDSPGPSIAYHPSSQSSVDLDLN
In short: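 CHO-K1 cells stably expressing hTGR5, in PBS with IBMX and cAMP antibody, treated with half-log compound dilutions for 1 h at room temperature. cAMP measured by enzyme-fragment complementation luminescence after overnight detection; EC50 values reported.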

mouse TGR5 receptor = target: T2, mouse TGR5 receptor (Mus musculus, UniProt Q80SS6); test: Mouse TGR5 HTRF cAMP production assay (HEK293-EBNA cells, Cisbio cAMP HiRange kit); assay type: cell-based; details: HEK293-EBNA cells overexpressing mouse TGR5, HTRF cAMP assay
T2 construct: host or cells: HEK293-EBNA (293 c18, ATCC CRL10852)
T2 sequence (Q80SS6 1-329): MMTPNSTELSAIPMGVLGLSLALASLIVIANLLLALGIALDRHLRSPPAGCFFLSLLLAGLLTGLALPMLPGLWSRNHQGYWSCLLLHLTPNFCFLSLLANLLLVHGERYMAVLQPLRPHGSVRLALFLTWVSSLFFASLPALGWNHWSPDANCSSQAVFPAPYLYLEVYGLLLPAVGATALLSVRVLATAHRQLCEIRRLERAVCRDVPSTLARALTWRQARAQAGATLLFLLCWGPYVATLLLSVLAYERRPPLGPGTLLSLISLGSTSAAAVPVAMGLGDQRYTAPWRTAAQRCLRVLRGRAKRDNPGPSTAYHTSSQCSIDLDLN
In short: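 HEK293-EBNA cells stably expressing mouse TGR5 (episomal vector) were suspended in serum-free DMEM with 500 μM IBMX and exposed to 12-point half-log compound dilutions for 1 h at room temperature. cAMP was detected by HTRF (d2-cAMP/anti-cAMP cryptate, 1 h, room temperature), giving EC50 from duplicates.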

Compound: N#Cc1ccc(CCNC(=O)[C@@H]2CCCN2c2cc(-c3ccc(CCC(=O)NCCS(=O)(=O)O)cc3)nc(C(F)(F)F)n2)cc1 [Compound 189, (S)-2-(3-(4-(6-(2-((4-cyanophenethyl)carbamoyl)pyrrolidin-1-yl)-2-(trifluoromethyl)pyrimidin-4-yl)phenyl)propanamido)ethanesulfonic acid]
EC50 (human TGR5 receptor): < 100 nM
EC50 (mouse TGR5 receptor): < 100 nM

Compound: O=C(CCCC1CCN(c2cc(N3CCC[C@H]3C(=O)NCCc3cccc(-c4ccncc4)c3)nc(C(F)(F)F)n2)CC1)NCS(=O)(=O)O [Compound 354, (S)-(4-(1-(6-(2-((3-(pyridin-4-yl)phenethyl)carbamoyl)pyrrolidin-1-yl)-2-(trifluoromethyl)pyrimidin-4-yl)piperidin-4-yl)butanamido)methanesulfonic acid]
EC50 (human TGR5 receptor): 1000 to 30000 nM
EC50 (mouse TGR5 receptor): 100 to 999 nM

Compound: N#Cc1ccc(CCNC(=O)[C@@H]2CCCN(c3cc(N4CCN(CCn5ccnc5)CC4)nc(C(F)(F)F)n3)C2)cc1 [Compound 318, (R)-1-(6-(4-(2-(1H-imidazol-1-yl)ethyl)piperazin-1-y1)-2-(trifluoromethyl)pyrimidin-4-yl)-N-(4-cyanophenethyl)piperidine-3-carboxamide]
EC50 (human TGR5 receptor): 100 to 999 nM
EC50 (mouse TGR5 receptor): < 100 nM

Compound: N#Cc1ccc(CCNC(=O)[C@@H]2CCCN2c2cc(-c3ccc(COCC(=O)O)cc3)cc(C(F)(F)F)n2)cc1 [Compound 208, (S)-2-((4-(2-(2-((4-cyanophenethyl)carbamoyl)pyrrolidin-1-yl)-6-(trifluoromethyl)pyridin-4-yl)benzyl)oxy)acetic acid]
EC50 (human TGR5 receptor): 100 to 999 nM
EC50 (mouse TGR5 receptor): < 100 nM

Compound: CC1(CO)CCN(C(=O)NCCC2CCN(c3cc(N4CCC[C@H]4C(=O)NCCc4ccc(C#N)cc4)nc(C(F)(F)F)n3)CC2)CC1 [Compound 84, (S)-N-(2-(1-(6-(2-((4-cyanophenethyl)carbamoyl)pyrrolidin-1-yl)-2-(trifluoromethyl)pyrimidin-4-yl)piperidin-4-yl)ethyl)-4-(hydroxymethyl)-4-methylpiperidine-1-carboxamide]
EC50 (human TGR5 receptor): < 100 nM
EC50 (mouse TGR5 receptor): < 100 nM

Compound: N#Cc1ccc(CCNC(=O)[C@@H]2CCCN(c3cc(N4CCC(CCN)CC4)nc(C(F)(F)F)n3)C2)cc1 [Compound 345, (R)-1-(6-(4-(2-aminoethyl)piperidin-1-yl)-2-(trifluoromethyl)pyrimidin-4-yl)-N-(4-cyanophenethyl)piperidine-3-carboxamide]
EC50 (human TGR5 receptor): < 100 nM
EC50 (mouse TGR5 receptor): < 100 nM

Further lines, results first:

EC50 (human TGR5 receptor): 100 to 999 nM
EC50 (mouse TGR5 receptor): < 100 nM
Compound: N#Cc1ccc(CCNC(=O)[C@@H]2CCCN2c2cc(N3CCC(CC(=O)O)CC3)nc(C(F)(F)F)n2)cc1 [Compound 27]

EC50 (human TGR5 receptor): < 100 nM
EC50 (mouse TGR5 receptor): < 100 nM
Compound: N[C@@H](CCC(=O)NCCCC1CCN(c2cc(N3CCC[C@H]3C(=O)NCCc3ccc(C(F)(F)F)cc3)nc(C(F)(F)F)n2)CC1)C(=O)O [Compound 77, (S)-2-amino-5-oxo-5-((3-(1-(2-(trifluoromethyl)-6-((S)-2-((4-(trifluoromethyl)phenethyl)carbamoyl)pyrrolidin-1-yl)pyrimidin-4-yl)piperidin-4-yl)propyl)amino)pentanoic acid]

EC50 (human TGR5 receptor): < 100 nM
EC50 (mouse TGR5 receptor): < 100 nM
Compound: CCOC(=O)CCNC(=O)NCCC1CCN(c2cc(N3CC[C@H]3C(=O)NCCc3ccc(C#N)cc3)nc(C(F)(F)F)n2)CC1 [Compound 267, (S)-ethyl 3-(3-(2-(1-(6-(2-((4-cyanophenethyl)carbamoyl)azetidin-1-yl)-2-(trifluoromethyl)pyrimidin-4-yl)piperidin-4-yl)ethyl)ureido)propanoate]

EC50 (human TGR5 receptor): 1000 to 30000 nM
EC50 (mouse TGR5 receptor): < 100 nM
Compound: N#Cc1ccc(CCNC(=O)[C@@H]2CCCN2c2cc(-c3cccc(CCC(=O)NCCS(=O)(=O)O)c3)nc(C(F)(F)F)n2)cc1 [Compound 190, (S)-2-(3-(3-(6-(2-((4-cyanophenethyl)-carbamoyl)pyrrolidin-1-yl)-2-(trifluoromethyl)pyrimidin-4-yl)phenyl)-propanamido)ethanesulfonic acid]

Source: US10654834B2 (Venenum Biodesign, LLC, priority 2016, dated 2020)
